Data: patent US20260364101A1, “OLEUROPEIN IN THE MANAGEMENT OF CANCER” (FUNDACIÓN MIGUEL SERVET, priority 2023, published 2026)

Experiments:
[1] = tested on: g-MDSC; assay: quantitative proteomics and Ingenuity Pathway Analysis of g-MDSC; format: cell-based, mouse
Procedure: (§1) Immunosuppressive myeloid cell subsets resembling tumor-infiltrating subsets (g-MDSCs, m-MDSCs and TAMs) were differentiated from mouse bone marrow following published procedures using conditioning medium produced by LLC tumor cells stably expressing GMCSF and MCSF cells. g- and m-MDSCs were purified using the myeloid-derived suppressor cell isolation kit (Miltenyi Biotec, Bergisch, Germany) according to manufacturer's recommendations. MDSCs and TAMs were seeded with 500 nM BML-275 or 50 μM oleuropein and incubated for seven days.
A unique proteomic experiment was carried out with five biological replicates per sample (m-MDSC, g-MDSC and TAM). Cells were homogenized in a lysis buffer containing 7 M urea, 2 M thiourea 50 mM DTT. The homogenates were spun down at 14000 g for 1 h at 15 °C. Before proteomic analysis, protein extracts were diluted with Laemmli sample buffer in 100 μL and loaded into a 0.75 mm thick polyacrylamide gel with a 4% stacking gel casted over a 12.5% resolving gel. The run was stopped as soon as the front entered 3 mm into the resolving gel so that the whole proteome became concentrated in the stacking/resolving gel interface. Bands were stained with Coomassie Brilliant Blue, excised from the gel and protein enzymatic cleavage was carried out with trypsin (Promega; 1:20, w/w) at 37 °C for 16 h as previously described. Purification and concentration of peptides was performed using C18 Zip Tip Solid Phase Extraction (Millipore).
Peptide mixtures were separated by reverse phase chromatography using an UltiMate 3000 UHLPC System (Thermo Scientific) fitted with an Aurora packed emitter column (lonopticks, 25 cm×75 μm ID, 1.6 μm C18). Samples were first loaded for desalting and concentration into an Acclaim PepMap column (ThermoFisher, 0.5 cm×300 μm ID, 5 μm C18) packed with the same chemistry as the separating column. Mobile phases were 100% water 0.1% formic acid (FA) (buffer A) and 100% Acetonitrile 0.1% FA (buffer B). Column gradient was developed in a 120 min two step gradient from 5% B to 20% B in 90 min and 20% B to 32% B in 30 min. Column was equilibrated in 95% B for 10 min and 5% B for 20 min. During the whole process, the precolumn was in line with the column and the flow maintained all along the gradient at 300 nl/min. The column temperature was maintained at 40 °C using an integrated column oven (PRSO-V2, Sonation, Biberach, Germany) and interfaced online with the Orbitrap Exploris 480 MS. Spray voltage were set to 2 kV, funnel RF level at 40, and heated capillary temperature at 300 °C. For DDA experiments full MS resolutions were set to […] at m/z 200 and full MS AGC target was set to Standard with an IT mode Auto. Mass range was set to 375-1500. AGC target value for fragment spectra was set to Standard with a resolution of 15,000 and 3 seconds for cycle time. The intensity threshold was kept at 8E3. Isolation width was set at 1.4 m/z. Normalized collision energy was set at 30%. All data were acquired in centroid mode using positive polarity and peptide match was set to off, and isotope exclusion was on.
Raw files were processed with MaxQuant v1.6.17.0 using the integrated Andromeda Search engine. All data were searched against a target/decoy version of the mouse Uniprot Reference Proteome with March 2021 release. First search peptide tolerance was set to 20 ppm, main search peptide tolerance was set to 4.5 ppm. Fragment mass tolerance was set to 20 ppm. Trypsin was specified as enzyme, […] carbamidomethylation of cysteine was specified as fixed modification and peptide N-terminal acetylation, oxidation of methionine, deamidation of asparagine and glutamine and pyro-glutamate formation from glutamine and glutamate were considered variable modifications with a total of two variable modifications per peptide. […]

[2] = tested on: MDSC subsets; assay: abundance of MDSC subsets in vivo; conditions: LXR agonist
[3] = tested on: TAMs; assay: morphology of ex vivo TAM cultures, phase contrast micrographs (FIG. 2a); format: cell-based, mouse; conditions: TAMs treated with oleuropein
Procedure: as §1

[4] = tested on: myeloid cells from NSCLC patients; assay: myeloid cells from NSCLC patients treated ex vivo, flow cytometry (FIG. 6a); format: cell-based, human
Procedure: Surface and intracellular staining were carried out as described before with the following fluorochrome-conjugated antibody clones: AF488 anti-CD49d (R1-2), PE anti-CD4 (GK1.5), APCanti-CD8(53-6.7), brilliant Violet 510™ anti-I-A/I-E (M5/114.15.2,PE/Cyanine7anti-Ly-6G (1A8), and APC anti-CD80 (16-10A1) (Biolegend), FITC anti-IL-12 (C15.6) and BV421 anti-IL-2 (JES6-5H4) (BD Bioscience), APC-Vio® 770 anti-Ly-6C (REA796), PE REAfinity™ anti-F4/80 (REA126), and APC anti-CD68 (REA886) (Miltenyi), PerCP-Cyanine5.5 Anti-Human/Mouse CD11b (M1/70) (Tonbo), and AF488 anti-IFNγ (Clone XMG1.2) (BD Pharmigen). For human cells, it was used the following fluorochrome-conjugated antibodies: PerCP-Cy5.5-anti-CD11b (integrina alfa M) (M1/70), Violet Fluor 450 anti-CD14 antibody (61D3) (Tonbo), PE anti-CD115 (CSF-1R) (9-4D2-1E4) (Biolegend), PE-Cy™7 anti-CD11c (Clone B-ly6) (BD Bioscience), and APC anti-HLA-DR (REA517) (Miltenyi).
Data were collected using the FACSCanto Flow Cytometer (BD Biosciences) for ex vivo and in vitro experiments at Navarrabiomed Biomedical Research Center and Cyroflex LX flow cytometer (Beckman Counter). Data were analyzed with Flowjo.
Twenty-one patients diagnosed with locally advanced or metastatic NSCLC treated with the immune checkpoint inhibitors (ICI) pembrolizumab (anti-PD-1) were recruited for the study. The characteristics of the cohort under study have been described before, and this observational study was approved by the Ethics Committee of Clinical Investigations at the University Hospital of Navarre (reference number: PI_2020/115). 11 of the patients were chemoresistant. Blood samples from non-small cell lung cancer (NSCLC) patients were collected prior to treatment and before administration of each immunotherapy cycle.
PBMCs were isolated as described and grown in vitro for 24 h in TEXCMACs medium (Miltenyi Biotec). Myeloid cells were obtained by adherence to plastic for 24 h. Then, 50,000 myeloid cells were seeded per well with 50 µM oleuropein in 96-well plates and incubated for seven days.

[5] = oleuropein 50 μM, seven days, N=21 patients

C/C=C1/[C@H](O[C@@H]2O[C@H](CO)[C@@H](O)[C@H](O)[C@H]2O)OC=C(C(=O)OC)[C@H]1CC(=O)OCCc1ccc(O)c(O)c1 [oleuropein]
AMPK signaling ([1]; IPA, g-MDSC): upregulation
EIF2 signalling ([1]; IPA, g-MDSC): downmodulated
NET signaling ([1]; IPA, g-MDSC): upregulation
estrogen receptor signalling ([1]; IPA, g-MDSC): downmodulated
fatty acid beta-oxidation ([1]; IPA, g-MDSC): activated
fmIP signaling ([1]; IPA, g-MDSC): upregulation
granzyme A signalling ([1]; IPA, g-MDSC): downmodulated
mTOR signaling ([1]; IPA, g-MDSC): upregulation
phospholipids ([1]; IPA, g-MDSC): decrease
upstream regulator E2f3 ([1]; IPA, g-MDSC): decrease
upstream regulator Eif6 ([1]; IPA, g-MDSC): increase
upstream regulator Stat4 ([1]; IPA, g-MDSC): inhibited
upstream regulator Tbk1 ([1]; IPA, g-MDSC): inhibited
cellular programming / proteome of g-MDSC ([1]; g-MDSC treated with oleuropein): acquiring an entirely different proteome
differentiation of myeloid cells to g-MDSC ([1]; g-MDSC treated with oleuropein): prevented
abundance of MDSC subsets and of immunosuppressive TME [2]: reduced the abundance of MDSC subsets in vivo as well as of immunosuppressive TME
morphology / phenotype [3]: acquired an M1-like phenotype
activation of myeloid cells of subjects suffering lung cancer ([4]; including anti-PD-1-based therapy resistance): induced the activation of myeloid cells
CD11b+ cells [4, 5]: increase
expression of CD11c+HLA-DR [4, 5]: elevation
expression of CD14+HLA-DR [4, 5]: elevation
expression of CD115+HLA-DR [4, 5]: elevation
